Measured values: patent US20200179335A1, “TREATMENT OF DISEASES ASSOCIATED WITH A DYSREGULATION OF THE mTOR PATHWAY” (BIOCODEX, priority 2017, published 2020)

What was measured:
[1] = tested on: Akt (P13K-Akt, upstream modulator of the mTOR pathway); assay: Western blot of Akt phosphorylation in hippocampus of pentylenetetrazol-treated rats; format: in vivo, rat; details: for ratio of phosphorylated Akt related to total Akt: hippocampus of adult male Sprague-Dawley rats, pretreatment i.p. (stiripentol 300 mg/kg or wortmannin 2.4 mg/kg) 30 min before pentylenetetrazol 80 mg/kg s.c., sacrifice 30 min after PTZ, tween-PTZ control 1.81
Procedure: (§1) The mTOR pathway has been studied at two levels (i) an upstream level of regulation with the P13K-Akt, a modulator of the mTOR pathway and (ii) a downstream level with the ribosomal protein S6, the substrate of the S6 kinase, a direct downstream effector of the mTOR pathway. Adult male Sprague-Dawley rats (Janvier, 220-250 g, n=24, 7 weeks old) were used in this study. They were housed 2 per cage (Techniplast ref. 1291), and maintained in a 12 h light/dark cycle (light ON at 7 AM). Food and water were provided ad libitum. The experiments were conducted in accordance with the European Recommendations (directive 2010/63/EU) for the use and care of laboratory animals. The experimental protocol has been approved by the ethics committee. Pentylenetetrazol (batch MKB[…], SIGMA), 80 mg/kg in 0.9% NaCl was administered subcutaneously in an injection volume of 5 mL/kg. Wortmannin (Sigma), 2.4 mg/kg in DMSO 10% v/v in 0.9% NaCl or Stiripentol (Biocodex), 300 mg/kg in tween80 5% v/v, were injected intraperitoneally (10 mL/kg) 30 min before pentylenetetrazol administration. […] The protein concentration of each sample was determined by a BCA protein assay. […] Signals were detected by enzyme chemiluminescence (Vilber Lourmat Fusion FX5 system) and quantitatively analyzed with the Bio-1 D software (Vilber Lourmat, France). […] Each membrane was also stripped (RestoreTM western blot stripping buffer, Thermoscientific) and reprobed to detect beta-actin protein levels, a control for the total quantity of protein deposited. […] The difference between groups was assessed by a two-way ANOVA followed by a Holm-Sidak multiple comparison (factor pretreatment=tween or STP, factor treatment=NaCl or PTZ). The effect of wortmaninn was assessed by a t-test comparison between tween-pentylenetetrazol (n=5) versus wortmannin-pentylenetetrazol groups (n=3).

[2] = tested on: ribosomal protein S6 (downstream effector of the mTOR pathway); assay: Western blot of S6 protein phosphorylation in hippocampus of pentylenetetrazol-treated rats; format: in vivo, rat; details: for ratio of phosphorylated S6 related to total S6 protein: hippocampus of adult male Sprague-Dawley rats, pretreatment i.p. (stiripentol 300 mg/kg or wortmannin 2.4 mg/kg) 30 min before pentylenetetrazol 80 mg/kg s.c., sacrifice 30 min after PTZ, Veh-PTZ control 0.79
Procedure: as §1

[3] = hippocampus, rats pretreated i.p. 30 min before pentylenetetrazol 80 mg/kg s.c.

Row | SMILES | ratio of phosphorylated Akt related to total Akt [1] | ratio of phosphorylated S6 related to total S6 protein [2] | band of phosphorylated Akt in western blot (FIG. 1) [1, 3] | band of phosphorylated S6 protein in western blot (FIG. 3) [2, 3]
1 | COC[C@H]1OC(=O)c2coc3c2[C@@]1(C)C1=C(C3=O)[C@@H]2CCC(=O)[C@@]2(C)C[C@H]1OC(C)=O [wortmannin] | 0.40 | 0.30 | – | –
2 | CC(C)(C)C(O)/C=C/c1ccc2c(c1)OCO2 (racemic) [stiripentol, 1-penten-3-ol, 1-(1,3-benzodioxol)-4,4-dimethyl] | 2.46 | 0.36 | strong band | No band was visible
